Results on five molecules are retold here after PMC5494507, “γ‐Secretase inhibitors in cancer clinical trials are pharmacologically and functionally distinct” (EMBO Molecular Medicine, 2017).

Test [1] deals with NOTCH. The arrangement: method as in ref Appendix Table S1 (Gavai et al, 2015; Cook et al, 2010; Krop et al, 2012; Wei et al, 2010; Luistro et al, 2009; Mitani et al, 2012). Conditions: ref Appendix Table S1 (Gavai et al, 2015; Cook et al, 2010; Krop et al, 2012; Wei et al, 2010; Luistro et al, 2009; Mitani et al, 2012); read-out: Reported IC50s NOTCH; cited from earlier work.
For test [2], the system named is APP. Nature of the test: Endogenous APP-CTF accumulation in MDA-MB-231 cells (Western blot). Conditions: for APP CTF increase / APP CTF level / accumulation at 100 nM: MDA-MB-231 (231 cells), 100 nM, triplicate; for APP CTF increase: vs DMSO; for concentration from which APP‐CTF process is inhibited: MDA-MB-231, 16 h. It is filed as cell-based. How it is done: To extend the study to a more physiological system, we assessed endogenous NOTCH1 cleavage inhibition using the triple‐negative breast cancer line MDA‐MB‐231 (Fig 6A). Full‐length blots are shown in source data for Fig 6. NOTCH1 cleavage was detected by Western blotting using the Cell Signaling neo‐epitope NICD antibody. […] The inhibition of endogenous APP in MDA‐MB‐231 cells was also tested by detecting accumulation of APP COOH‐terminal fragments (APP‐CTFs). […] Figure 6D summarized the APP‐CTF band intensities normalized for DMSO group. The original blots are available in source data for Fig 6.
Values are mean ± SD of three tests. • APP‐CTF Western blot of MDA‐MB‐231 cells treated with indicated concentration of GSIs for 16 h. • Band intensities of APP‐CTF with 0.1 μM GSIs were normalized for DMSO control group. Values are mean ± SD of three tests. Data information: Original blots are provided as source data. All band intensity data are derived from three independent experiments and are analyzed by one‐way ANOVA using GraphPad Prism6 software. All experiments were repeated three times.Source data are available online for this figure.
A general note: In western blotting, separated proteins are transferred to a membrane and probed.

For test [3], the target named is T1, SPPL2b (Homo sapiens, UniProt Q8TCT7).
T1 construct: expressed in transfected cells
T1 sequence (Q8TCT7 26-592): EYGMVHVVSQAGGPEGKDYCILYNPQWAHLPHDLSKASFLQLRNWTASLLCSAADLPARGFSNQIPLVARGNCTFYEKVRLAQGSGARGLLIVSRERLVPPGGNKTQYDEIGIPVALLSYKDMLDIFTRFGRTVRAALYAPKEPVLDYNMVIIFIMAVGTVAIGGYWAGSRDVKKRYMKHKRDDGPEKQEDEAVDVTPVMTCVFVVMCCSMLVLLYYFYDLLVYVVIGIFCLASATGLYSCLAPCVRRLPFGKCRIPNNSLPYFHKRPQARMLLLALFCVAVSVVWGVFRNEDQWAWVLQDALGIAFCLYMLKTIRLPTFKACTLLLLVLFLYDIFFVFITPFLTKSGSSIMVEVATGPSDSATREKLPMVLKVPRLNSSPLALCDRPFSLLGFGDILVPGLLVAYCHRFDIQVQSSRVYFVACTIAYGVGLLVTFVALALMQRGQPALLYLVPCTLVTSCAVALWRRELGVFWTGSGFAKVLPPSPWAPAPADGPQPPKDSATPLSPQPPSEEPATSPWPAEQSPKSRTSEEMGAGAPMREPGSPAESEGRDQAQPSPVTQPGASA
Nature of the test: Cell-based SPPL2b cleavage assay, stable SPPL2b/FBA overexpressing HEK 293 cell line (ELISA). Conditions: 16 h. How it is done:
It is known that SPP/SPPLs can be inhibited by select GSIs (Ran et al, 2015). Here, we tested the effect of various GSIs on the SPP/SPPL family members SPPL2a, SPPL2b, and SPP. We co‐transfected SPPLs with the BRI2 based chimeric SPP/SPPL substrate that we have referred to as FBA into HEK 293t cells. SPPL‐specific inhibitor (ZLL)2‐ketone was used as positive control. DAPT was not tested here as we and others have previously reported it had no effect on SPP activity at concentration up to 100 μM (Weihofen et al, 2003). […] Dose responses of BMS‐906024, RO4929097, and PF‐3084014 were performed with a similar strategy, but a stable SPPL2b/FBA overexpressing HEK 293 cell line was used instead of transient transfection (Fig 8B). […] Table 3 compares the GSIs’ potencies on γ‐secretase and SPPL2b. The average of IC50s on cNOTCH1sub, cNOTCH2sub, cNOTCH4sub, and APP was used as the GSI's potency on γ‐secretase.
SPPL2a, SPPL2b, SPP, and chimeric substrate FBA were generated as previously described (Ran et al, 2015). A20 cells (TIB‐208; ATCC, Manassas, VA, USA) were cultured in RPMI‐1640 medium (ATCC) supplied with 10% fetal bovine serum, 1% penicillin/streptomycin, and 0.05 mM 2‐mercaptoethanol (Life Technologies). Various concentrations of GSIs and (ZLL)2‐ketone as indicated in figures were applied to transfected HEK 293t cells at 70–90% confluence or A20 cells at a density of 5 × 10^5 cells/ml with fresh media in 48‐well format for 16 h. Cells and conditioned media were used for WB, IP, and ELISA.
Sandwich ELISAs used for Aβ detection were performed as previously described (Murphy et al, 1999; Ran et al, 2014). Briefly, Aβ and Aβ‐like peptides in conditioned media were captured with Ab5 antibody and detected with horseradish peroxidase labeled mAb 4G8 (Biolegend). Synthetic Aβ1‐40 was used as standard. All ELISAs were developed with TMB substrate (KPL, Gaithersburg, Maryland, USA). Bis‐Tris precast gels (Biorad, Hercules, CA, USA) were used for all SDS–PAGE. […] The supernatants were collected, and protein concentrations were determined by Bradford Assay. […]
(ELISA stands for enzyme-linked immunosorbent assay.)

“Also recorded” adds a separate entry of the source.

Regarding `CN1C(=O)[C@@H](NC(=O)[C@H](CCC(F)(F)F)[C@H](CCC(F)(F)F)C(N)=O)N=C(c2ccccc2)c2ccccc21` [BMS‐906024], in test [1], the IC50 was 0.7 to 3.4 nM. In test [2], the “APP CTF increase” value is reported as over 15 times and the “concentration from which APP‐CTF process is inhibited” value is at least 20 nM. The molecule also came in with an IC50 in test [3] of 28.3 nM.

Consider `O=C(O)CC[C@H]1CC[C@@](c2cc(F)ccc2F)(S(=O)(=O)c2ccc(Cl)cc2)CC1` [MK‐0752], for which the IC50 in test [1] was 55 nM. For the same molecule, the “APP CTF level / accumulation at 100 nM” value in test [2] is “hard to see”; in test [2] (listed as MK) it was “did not significantly increase CTF level”. Besides, the “concentration from which APP‐CTF process is inhibited” value in test [2] is at least 500 nM.

With `CCC[C@H](N[C@H]1CCc2cc(F)cc(F)c2C1)C(=O)Nc1cn(C(C)(C)CNCC(C)(C)C)cn1` [PF‐3084014], the IC50 in test [1] was 13.3 nM. Further, in test [2], the “APP CTF increase” value is given as over 15 times and the “concentration from which APP‐CTF process is inhibited” value is given as at least 20 nM. This molecule came in with an IC50 in test [3] of 1160 nM.

`CC(C)(C(=O)NCC(F)(F)C(F)(F)F)C(=O)N[C@@H]1C(=O)Nc2ccccc2-c2ccccc21` [RO4929097]: the IC50 in test [1] is 5 nM. Besides, in test [2], the “APP CTF increase” value is listed as over 15 times and the “concentration from which APP‐CTF process is inhibited” value is on record as at least 20 nM. The same molecule showed an IC50 in test [3] of 72.8 nM.

Consider `CC(C)[C@H](O)C(=O)N[C@@H](C)C(=O)N[C@@H]1C(=O)N(C)CCc2ccccc21` [Semagacestat], for which the IC50 in test [1] is 14.1 nM. Further, in test [2], the “APP CTF level / accumulation at 100 nM” value was “hard to see; also recorded: did not significantly increase CTF level” and the “concentration from which APP‐CTF process is inhibited” value is at least 500 nM.
